Data reported in ChEMBL document CHEMBL3414527, “Engineering potent and selective analogues of GpTx-1, a tarantula venom peptide antagonist of the Na(V)1.7 sodium channel” (J Med Chem, 2015).
Bridge positions count the residues as written; N and C are the ends. Peptide text beside a SMILES is read from it.

Key:
[1] = biological target: Sodium channel protein type 9 subunit alpha (Homo sapiens, UniProt Q15858); assay: Inhibition of human NaV1.7 at -140 mV holding potential by whole-cell patch clamp assay
Chain of Sodium channel protein type 9 subunit alpha (Q15858 whole entry): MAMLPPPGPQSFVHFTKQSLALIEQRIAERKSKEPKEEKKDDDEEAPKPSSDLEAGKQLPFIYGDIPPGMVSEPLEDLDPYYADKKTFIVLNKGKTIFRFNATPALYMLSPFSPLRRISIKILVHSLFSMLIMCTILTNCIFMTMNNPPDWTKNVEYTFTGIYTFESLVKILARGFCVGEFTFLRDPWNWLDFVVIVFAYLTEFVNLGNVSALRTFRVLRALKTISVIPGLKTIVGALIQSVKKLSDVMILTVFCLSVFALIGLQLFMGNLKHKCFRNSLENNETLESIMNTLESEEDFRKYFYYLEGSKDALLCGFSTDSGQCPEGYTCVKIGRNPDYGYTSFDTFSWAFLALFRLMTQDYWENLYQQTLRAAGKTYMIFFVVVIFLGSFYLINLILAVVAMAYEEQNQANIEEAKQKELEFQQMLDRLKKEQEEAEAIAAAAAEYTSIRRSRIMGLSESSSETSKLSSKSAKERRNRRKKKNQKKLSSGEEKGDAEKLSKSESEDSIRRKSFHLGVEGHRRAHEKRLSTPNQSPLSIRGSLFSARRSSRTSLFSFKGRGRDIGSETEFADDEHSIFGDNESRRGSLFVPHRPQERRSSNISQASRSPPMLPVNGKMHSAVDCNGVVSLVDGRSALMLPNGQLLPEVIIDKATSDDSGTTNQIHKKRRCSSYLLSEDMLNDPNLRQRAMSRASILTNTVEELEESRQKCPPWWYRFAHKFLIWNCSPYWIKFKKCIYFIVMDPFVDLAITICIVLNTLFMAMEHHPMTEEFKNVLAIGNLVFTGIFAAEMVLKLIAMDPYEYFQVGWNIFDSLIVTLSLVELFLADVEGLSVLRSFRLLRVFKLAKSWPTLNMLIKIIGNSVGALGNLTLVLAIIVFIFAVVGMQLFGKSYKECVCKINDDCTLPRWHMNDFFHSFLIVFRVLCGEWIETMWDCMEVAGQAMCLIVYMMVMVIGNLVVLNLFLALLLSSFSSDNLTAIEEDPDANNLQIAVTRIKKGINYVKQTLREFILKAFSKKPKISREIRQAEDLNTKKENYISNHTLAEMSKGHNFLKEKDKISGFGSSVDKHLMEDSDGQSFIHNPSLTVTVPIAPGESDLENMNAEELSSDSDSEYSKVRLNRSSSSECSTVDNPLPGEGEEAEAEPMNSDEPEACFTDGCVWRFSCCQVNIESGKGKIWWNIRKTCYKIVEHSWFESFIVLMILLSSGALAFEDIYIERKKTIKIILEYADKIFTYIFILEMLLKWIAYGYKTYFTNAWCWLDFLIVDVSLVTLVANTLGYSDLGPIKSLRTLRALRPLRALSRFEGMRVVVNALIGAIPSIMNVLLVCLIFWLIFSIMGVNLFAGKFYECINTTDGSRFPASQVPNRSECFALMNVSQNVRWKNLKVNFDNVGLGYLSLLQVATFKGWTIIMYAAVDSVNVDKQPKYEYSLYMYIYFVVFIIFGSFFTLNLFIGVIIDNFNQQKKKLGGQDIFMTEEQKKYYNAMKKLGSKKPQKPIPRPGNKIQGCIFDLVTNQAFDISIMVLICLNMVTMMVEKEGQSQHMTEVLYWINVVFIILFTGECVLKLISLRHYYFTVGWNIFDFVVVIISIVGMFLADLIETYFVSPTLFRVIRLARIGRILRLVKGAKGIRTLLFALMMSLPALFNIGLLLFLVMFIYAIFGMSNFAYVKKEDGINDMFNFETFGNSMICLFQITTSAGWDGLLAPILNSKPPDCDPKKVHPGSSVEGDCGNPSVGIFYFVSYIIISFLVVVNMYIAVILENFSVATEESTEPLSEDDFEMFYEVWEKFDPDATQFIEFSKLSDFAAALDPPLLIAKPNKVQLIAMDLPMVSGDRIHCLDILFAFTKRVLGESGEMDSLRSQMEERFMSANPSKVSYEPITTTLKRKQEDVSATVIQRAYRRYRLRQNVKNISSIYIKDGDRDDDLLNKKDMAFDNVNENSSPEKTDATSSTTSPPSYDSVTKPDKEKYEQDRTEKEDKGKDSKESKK

[2] = biological target: Sodium channel protein type 5 subunit alpha (Homo sapiens, UniProt Q14524); assay: Inhibition of human NaV1.5 at -140 mV holding potential by whole-cell patch clamp assay
Chain of Sodium channel protein type 5 subunit alpha (Q14524 whole entry): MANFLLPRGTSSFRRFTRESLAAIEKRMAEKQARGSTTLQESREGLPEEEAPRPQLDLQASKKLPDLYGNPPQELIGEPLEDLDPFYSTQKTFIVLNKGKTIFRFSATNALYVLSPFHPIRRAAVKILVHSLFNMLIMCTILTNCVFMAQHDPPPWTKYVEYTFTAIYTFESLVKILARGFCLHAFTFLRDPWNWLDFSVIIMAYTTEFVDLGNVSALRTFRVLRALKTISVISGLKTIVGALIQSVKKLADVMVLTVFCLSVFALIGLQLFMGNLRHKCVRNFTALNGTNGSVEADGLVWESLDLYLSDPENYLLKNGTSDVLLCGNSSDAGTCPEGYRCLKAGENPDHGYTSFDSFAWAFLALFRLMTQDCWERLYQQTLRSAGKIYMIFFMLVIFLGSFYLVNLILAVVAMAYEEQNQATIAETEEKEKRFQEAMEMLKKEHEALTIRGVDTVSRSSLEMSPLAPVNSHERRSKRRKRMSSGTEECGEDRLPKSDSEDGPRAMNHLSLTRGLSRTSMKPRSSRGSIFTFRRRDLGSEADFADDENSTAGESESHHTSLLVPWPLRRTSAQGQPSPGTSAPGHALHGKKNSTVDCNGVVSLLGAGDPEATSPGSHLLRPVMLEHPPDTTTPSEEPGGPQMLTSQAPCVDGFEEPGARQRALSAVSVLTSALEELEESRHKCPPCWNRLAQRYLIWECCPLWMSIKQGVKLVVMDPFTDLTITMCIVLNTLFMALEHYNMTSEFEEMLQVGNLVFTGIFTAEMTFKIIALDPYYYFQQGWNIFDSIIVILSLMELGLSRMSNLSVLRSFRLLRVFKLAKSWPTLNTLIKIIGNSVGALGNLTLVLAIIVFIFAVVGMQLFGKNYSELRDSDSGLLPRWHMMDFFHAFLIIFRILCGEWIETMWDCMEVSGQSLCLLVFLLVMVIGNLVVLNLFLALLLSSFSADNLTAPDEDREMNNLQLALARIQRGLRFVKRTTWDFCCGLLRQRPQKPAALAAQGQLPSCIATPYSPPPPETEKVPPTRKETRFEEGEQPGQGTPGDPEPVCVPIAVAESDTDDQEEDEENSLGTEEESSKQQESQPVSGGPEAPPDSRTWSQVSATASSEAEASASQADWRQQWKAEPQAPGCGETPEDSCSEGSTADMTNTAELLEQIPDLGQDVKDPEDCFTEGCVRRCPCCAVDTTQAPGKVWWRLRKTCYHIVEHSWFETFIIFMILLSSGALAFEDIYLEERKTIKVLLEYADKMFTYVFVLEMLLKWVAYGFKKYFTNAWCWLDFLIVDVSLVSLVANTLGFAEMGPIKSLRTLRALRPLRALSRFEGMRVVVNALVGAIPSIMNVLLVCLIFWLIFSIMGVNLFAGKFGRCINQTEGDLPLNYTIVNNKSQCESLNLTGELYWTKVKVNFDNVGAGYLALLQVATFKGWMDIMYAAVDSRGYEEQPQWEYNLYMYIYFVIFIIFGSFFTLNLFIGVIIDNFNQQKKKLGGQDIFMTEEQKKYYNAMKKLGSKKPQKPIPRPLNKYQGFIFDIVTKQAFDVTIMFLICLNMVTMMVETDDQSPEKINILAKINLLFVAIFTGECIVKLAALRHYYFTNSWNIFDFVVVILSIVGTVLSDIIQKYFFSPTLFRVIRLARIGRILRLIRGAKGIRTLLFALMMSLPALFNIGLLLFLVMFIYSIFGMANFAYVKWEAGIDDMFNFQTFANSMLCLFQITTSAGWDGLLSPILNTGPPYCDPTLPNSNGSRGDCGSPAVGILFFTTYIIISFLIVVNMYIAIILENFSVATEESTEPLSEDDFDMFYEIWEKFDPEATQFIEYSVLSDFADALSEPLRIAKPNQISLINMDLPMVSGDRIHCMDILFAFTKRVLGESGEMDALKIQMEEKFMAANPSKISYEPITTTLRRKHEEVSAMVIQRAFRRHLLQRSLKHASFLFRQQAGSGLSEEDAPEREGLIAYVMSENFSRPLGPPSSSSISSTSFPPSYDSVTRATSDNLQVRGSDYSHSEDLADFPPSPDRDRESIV

SMILES | IC50 [1] | IC50 [2]
CC[C@@H]1NC(=O)CNC(=O)[C@H](CC(C)C)NC(=O)[C@@H](NC(=O)[C@@H](N)CC(=O)O)CSSC[C@@H]2NC(=O)[C@@H]3CSSC[C@@H](C(=O)N[C@@H](CCCCN)C(=O)N[C@@H](Cc4ccc(O)cc4)C(=O)N[C@H](C(=O)N[C@@H](Cc4ccccc4)C(N)=O)C(C)C)NC(=O)[C@H](Cc4c[nH]c5ccccc45)NC(=O)[C@H](CCCCN)NC(=O)[C@H](Cc4cnc[nH]4)NC(=O)[C@H]([C@@H](C)O)NC(=O)[C@H](CCCNC(=N)N)NC(=O)[C@H](CO)NC(=O)[C@H](CSSC[C@H](NC(=O)[C@H](CCCCN)NC(=O)[C@H](CCCNC(=N)N)NC(=O)[C@H](CCSC)NC1=O)C(=O)N[C@@H]([C@@H](C)CC)C(=O)N1CCC[C@H]1C(=O)N[C@@H](CC(=O)O)C(=O)N[C@@H](CC(N)=O)C(=O)N[C@@H](CC(=O)O)C(=O)N[C@@H](CCCCN)C(=O)N3)NC(=O)[C@H](C(C)C)NC(=O)[C@H](CC(C)C)NC(=O)[C@H](CC(N)=O)NC(=O)[C@@H]1CCCN1C(=O)[C@H](CCCNC(=N)N)NC2=O | 79 nM | > 10000 nM
CC[C@H](C)[C@@H]1NC(=O)[C@@H]2CSSC[C@@H]3NC(=O)[C@H](C(C)C)NC(=O)[C@H](CC(C)C)NC(=O)[C@H](CC(N)=O)NC(=O)[C@@H]4CCCN4C(=O)[C@H](CCCNC(=N)N)NC(=O)[C@H](CSSC[C@H](NC(=O)[C@@H](N)CC(=O)O)C(=O)N[C@@H](CC(C)C)C(=O)NCC(=O)N[C@@H](C)C(=O)N[C@@H](Cc4cccc5ccccc45)C(=O)N[C@@H](CCCNC(=N)N)C(=O)N[C@@H](CCCCN)C(=O)N2)NC(=O)[C@H](CSSC[C@@H](C(=O)N[C@@H](CCCCN)C(=O)N[C@@H](Cc2ccc(O)cc2)C(=O)N[C@H](C(=O)N[C@@H](Cc2ccccc2)C(N)=O)C(C)C)NC(=O)[C@H](Cc2c[nH]c4ccccc24)NC(=O)[C@H](CCCCN)NC(=O)[C@H](Cc2cnc[nH]2)NC(=O)[C@H]([C@@H](C)O)NC(=O)[C@H](CCCNC(=N)N)NC(=O)[C@H](CO)NC3=O)NC(=O)[C@H](CCCCN)NC(=O)[C@H](CC(=O)O)NC(=O)[C@H](CC(N)=O)NC(=O)[C@H](CC(=O)O)NC(=O)[C@@H]2CCCN2C1=O | 3 nM | 3600 nM
CC[C@H](C)[C@@H]1NC(=O)[C@@H]2CSSC[C@@H]3NC(=O)[C@H](C(C)C)NC(=O)[C@H](CC(C)C)NC(=O)[C@H](CC(N)=O)NC(=O)[C@@H]4CCCN4C(=O)[C@H](CCCNC(=N)N)NC(=O)[C@H](CSSC[C@H](NC(=O)[C@@H](N)CC(=O)O)C(=O)N[C@@H](CC(C)C)C(=O)NCC(=O)N[C@@H](Cc4ccccc4)C(=O)N[C@@H](CCSC)C(=O)N[C@@H](CCCNC(=N)N)C(=O)N[C@@H](CCCCN)C(=O)N2)NC(=O)[C@H](CSSC[C@@H](C(=O)N[C@@H](CCCCN)C(=O)N[C@@H](Cc2ccc(O)cc2)C(=O)N[C@H](C(=O)N[C@@H](Cc2ccccc2)C(N)=O)C(C)C)NC(=O)[C@H](Cc2c[nH]c4ccccc24)NC(=O)[C@H](CCCCN)NC(=O)[C@H](Cc2cnc[nH]2)NC(=O)[C@H]([C@@H](C)O)NC(=O)[C@H](CCCNC(=N)N)NC(=O)[C@H](CO)NC3=O)NC(=O)[C@H](C)NC(=O)[C@H](CC(=O)O)NC(=O)[C@H](CC(N)=O)NC(=O)[C@H](CC(=O)O)NC(=O)[C@@H]2CCCN2C1=O (H-DCLGFMRKCIPDNDACCRPNLVCSRTHKWCKYVF-NH2; disulfide 2-17, 9-23, 16-30) | 230 nM | > 5000 nM
CC[C@H](C)[C@@H]1NC(=O)[C@@H]2CSSC[C@@H]3NC(=O)[C@H](C(C)C)NC(=O)[C@H](CC(C)C)NC(=O)[C@H](CC(N)=O)NC(=O)[C@@H]4CCCN4C(=O)[C@H](CCCNC(=N)N)NC(=O)[C@H](CSSC[C@H](NC(=O)[C@@H](N)CC(=O)O)C(=O)N[C@@H](CC(C)C)C(=O)NCC(=O)N[C@@H](Cc4ccccc4)C(=O)N[C@@H](CCSC)C(=O)N[C@@H](CCCNC(=N)N)C(=O)N[C@@H](CCCCN)C(=O)N2)NC(=O)[C@H](CSSC[C@@H](C(=O)N[C@@H](CCCCN)C(=O)N[C@@H](Cc2ccc(O)cc2)C(=O)N[C@H](C(=O)N[C@@H](Cc2ccccc2)C(N)=O)C(C)C)NC(=O)[C@H](Cc2c[nH]c4ccccc24)NC(=O)[C@H](CCC(=O)O)NC(=O)[C@H](Cc2cnc[nH]2)NC(=O)[C@H]([C@@H](C)O)NC(=O)[C@H](CCCNC(=N)N)NC(=O)[C@H](CO)NC3=O)NC(=O)[C@H](CCCCN)NC(=O)[C@H](CC(=O)O)NC(=O)[C@H](CC(N)=O)NC(=O)[C@H](CC(=O)O)NC(=O)[C@@H]2CCCN2C1=O (H-DCLGFMRKCIPDNDKCCRPNLVCSRTHEWCKYVF-NH2; disulfide 2-17, 9-23, 16-30) | 29 nM | > 10000 nM
CC[C@H](C)[C@@H]1NC(=O)[C@@H]2CSSC[C@@H]3NC(=O)[C@H](C(C)C)NC(=O)[C@H](CC(C)C)NC(=O)[C@H](CC(N)=O)NC(=O)[C@@H]4CCCN4C(=O)[C@H](CCCNC(=N)N)NC(=O)[C@H](CSSC[C@H](NC(=O)[C@@H](N)CC(=O)O)C(=O)N[C@@H](CC(C)C)C(=O)NCC(=O)N[C@@H](Cc4ccccc4)C(=O)N[C@@H](CCSC)C(=O)N[C@@H](CCCNC(=N)N)C(=O)N[C@@H](CCCCN)C(=O)N2)NC(=O)[C@H](CSSC[C@@H](C(=O)N[C@@H](CCCCN)C(=O)N[C@@H](Cc2ccc(O)cc2)C(=O)N[C@H](C(=O)N[C@@H](Cc2ccccc2)C(N)=O)C(C)C)NC(=O)[C@H](Cc2c[nH]c4ccccc24)NC(=O)[C@H](CCCCN)NC(=O)[C@H](Cc2cnc[nH]2)NC(=O)[C@H]([C@@H](C)O)NC(=O)[C@H](CCCNC(=N)N)NC(=O)[C@H](CO)NC3=O)NC(=O)[C@H](CCCCN)NC(=O)[C@H](CC(=O)O)NC(=O)[C@H](C)NC(=O)[C@H](CC(=O)O)NC(=O)[C@@H]2CCCN2C1=O (H-DCLGFMRKCIPDADKCCRPNLVCSRTHKWCKYVF-NH2; disulfide 2-17, 9-23, 16-30) | 190 nM | > 5000 nM
CC[C@H](C)[C@@H]1NC(=O)CNC(=O)[C@H](CC(C)C)NC(=O)[C@@H](NC(=O)[C@@H](N)CC(=O)O)CSSC[C@@H]2NC(=O)[C@@H]3CSSC[C@@H](C(=O)N[C@@H](CCCCN)C(=O)N[C@@H](Cc4ccc(O)cc4)C(=O)N[C@H](C(=O)N[C@@H](Cc4ccccc4)C(N)=O)C(C)C)NC(=O)[C@H](Cc4c[nH]c5ccccc45)NC(=O)[C@H](CCCCN)NC(=O)[C@H](Cc4cnc[nH]4)NC(=O)[C@H]([C@@H](C)O)NC(=O)[C@H](CCCNC(=N)N)NC(=O)[C@H](CO)NC(=O)[C@H](CSSC[C@H](NC(=O)[C@H](CCCCN)NC(=O)[C@H](CCCNC(=N)N)NC(=O)[C@H](CCSC)NC1=O)C(=O)N[C@@H]([C@@H](C)CC)C(=O)N1CCC[C@H]1C(=O)N[C@@H](CC(=O)O)C(=O)N[C@@H](CC(N)=O)C(=O)N[C@@H](CC(=O)O)C(=O)N[C@@H](CCCCN)C(=O)N3)NC(=O)[C@H](C(C)C)NC(=O)[C@H](CC(C)C)NC(=O)[C@H](CC(N)=O)NC(=O)[C@@H]1CCCN1C(=O)[C@H](CCCNC(=N)N)NC2=O (H-DCLGIMRKCIPDNDKCCRPNLVCSRTHKWCKYVF-NH2; disulfide 2-17, 9-23, 16-30) | 9 nM | > 10000 nM
CC[C@H](C)[C@@H]1NC(=O)[C@@H]2CSSC[C@@H]3NC(=O)[C@H](C(C)C)NC(=O)[C@H](CC(C)C)NC(=O)[C@H](CC(N)=O)NC(=O)[C@@H]4CCCN4C(=O)[C@H](CCCNC(=N)N)NC(=O)[C@H](CSSC[C@H](NC(=O)[C@@H](N)CC(=O)O)C(=O)N[C@@H](CC(C)C)C(=O)NCC(=O)N[C@@H](Cc4ccccc4)C(=O)N[C@@H](CCSC)C(=O)N[C@@H](CCCNC(=N)N)C(=O)N[C@@H](CCCCN)C(=O)N2)NC(=O)[C@H](CSSC[C@@H](C(=O)N[C@@H](CCCCN)C(=O)N[C@@H](Cc2ccc(O)cc2)C(=O)N[C@@H](C)C(=O)N[C@@H](Cc2ccccc2)C(N)=O)NC(=O)[C@H](Cc2c[nH]c4ccccc24)NC(=O)[C@H](CCCCN)NC(=O)[C@H](Cc2cnc[nH]2)NC(=O)[C@H]([C@@H](C)O)NC(=O)[C@H](CCCNC(=N)N)NC(=O)[C@H](CO)NC3=O)NC(=O)[C@H](CCCCN)NC(=O)[C@H](CC(=O)O)NC(=O)[C@H](CC(N)=O)NC(=O)[C@H](CC(=O)O)NC(=O)[C@@H]2CCCN2C1=O (H-DCLGFMRKCIPDNDKCCRPNLVCSRTHKWCKYAF-NH2; disulfide 2-17, 9-23, 16-30) | 170 nM | > 5000 nM
CC[C@H](C)[C@@H]1NC(=O)[C@@H]2CSSC[C@@H]3NC(=O)[C@H](C(C)C)NC(=O)[C@H](CC(C)C)NC(=O)[C@H](CC(N)=O)NC(=O)[C@@H]4CCCN4C(=O)[C@H](CCCNC(=N)N)NC(=O)[C@H](CSSC[C@H](NC(=O)[C@@H](N)CC(=O)O)C(=O)N[C@@H](CC(C)C)C(=O)NCC(=O)N[C@@H](Cc4ccccc4)C(=O)N[C@@H](Cc4cccc5ccccc45)C(=O)N[C@@H](CCCNC(=N)N)C(=O)N[C@@H](CCCCN)C(=O)N2)NC(=O)[C@H](CSSC[C@@H](C(=O)N[C@@H](CCCCN)C(=O)N[C@@H](Cc2ccc(O)cc2)C(=O)N[C@H](C(=O)N[C@@H](Cc2ccccc2)C(N)=O)C(C)C)NC(=O)[C@H](Cc2c[nH]c4ccccc24)NC(=O)[C@H](CCCCN)NC(=O)[C@H](Cc2cnc[nH]2)NC(=O)[C@H]([C@@H](C)O)NC(=O)[C@H](CCCNC(=N)N)NC(=O)[C@H](CO)NC3=O)NC(=O)[C@H](CCCCN)NC(=O)[C@H](CC(=O)O)NC(=O)[C@H](CC(N)=O)NC(=O)[C@H](CC(=O)O)NC(=O)[C@@H]2CCCN2C1=O | 4 nM | 400 nM
